Measurements reported in PMC8606745 (Frontiers in Microbiology, 2021).
Where two headings read alike, the source gives them in different places. Square brackets hold non-standard residues; d marks the D form. Peptide text beside a SMILES is read from it. * marks the point of attachment. Hexanoyl = CCCCCC(=O)*

Columns and labels:
[1] = test system: X. fastidiosa subsp. fastidiosa IVIA 5387.2; format: cell-based, Xylella fastidiosa
[2] = test system: X. fastidiosa subsp. fastidiosa IVIA 5387.2
[3] = test system: X. fastidiosa subsp. fastidiosa IVIA 5387.2; settings: for Bimax (maximum biofilm inhibition): 50 µM
[4] = test system: X. fastidiosa subsp. fastidiosa IVIA 5387.2; format: cell-based, Xylella fastidiosa; remark: listed apart in the source
Gram-negative bacteria [5] = settings: cited from earlier work
Gram-negative bacteria [6] = test system: Gram-negative bacteria; set-up: key: Xf: Xylella fastidiosa; Ec: Escherichia coli; Pa: Pseudomonas aeruginosa; Ab: Acinetobacter baumannii; Kp: Klebsiella pneumoniae; Bc: Burkholderia cenocepacia; Se: Salmonella enterica subsp. enterica; Sp: Salmonella pullorum; –: low or no activity; settings: cited from earlier work; remark: listed apart in the source
[7] = test system: several X. fastidiosa strains; settings: 12.5 μM; cited from earlier work

Compound	Biofilm formation Level (antibiofilm activity) [1]	Biofilm formation Ratio (treatment/NTC) [1]	Planktonic cells Ratio (treatment/NTC) [1]	Bactericidal activity: Reduction in viability (Log N0/N) [2]	ED50 (median effective dose, biofilm inhibition) [3]	Bimax (maximum biofilm inhibition) [3]	Biofilm formation Level (antibiofilm activity) ([1]; 50 µM)	Biofilm formation Ratio (treatment/NTC) ([1]; 50 µM)	Planktonic cells Ratio (treatment/NTC) ([1]; 50 µM)	Bactericidal activity: Reduction in viability (Log N0/N) ([2]; 50 µM)	attached biofilm cells [4]	biofilm detached cells [4]	planktonic cells [4]	Hemolysis (horse erythrocytes; 150 µM)	Hemolysis (horse erythrocytes; 250 µM)	Hemolysis (horse erythrocytes; 375 µM)	Described activity: Antibacterial (Gram-negative bacteria [5])	Described activity: Antibiofilm (Gram-negative bacteria [6])	reduction in viability [7]	Effect on X. fastidiosa growth in the antibiofilm test ([1]; 50 µM)
CC[C@H](C)[C@H](N)C(=O)N[C@@H](CC(C)C)C(=O)N1CCC[C@H]1C(=O)N[C@H](Cc1ccccc1)C(=O)N[C@@H](CCCCN)C(=O)N[C@H](Cc1ccccc1)C(=O)N1CCC[C@H]1C(=O)N[C@H](Cc1ccccc1)C(=O)N[C@H](Cc1ccccc1)C(=O)N1CCC[C@H]1C(=O)N[C@H](Cc1ccccc1)C(=O)N[C@@H](CCCNC(=N)N)C(=O)N[C@@H](CCCNC(=N)N)C(N)=O [BP525] (H-ILP[dF]K[dF]P[dF][dF]P[dF]RR-NH2)	High (key: High: high antibiofilm activity (ratio of biofilm formation from 0.01 to 0.2); Moderate: moderate activity (ratio from 0.29 to 0.47); Low: low activity (ratio from 0.72 to 0.77))	0.18 ± 0.01	1.83 ± 0.12	0.74 ± 0.06 Log N0/N	4.4 ± 1.3 µM	85.8%														
CCCCCC(=O)N[C@H](C(=O)N[C@@H](CC(C)C)C(=O)N1CCC[C@H]1C(=O)N[C@H](Cc1ccccc1)C(=O)N[C@@H](CCCCN)C(=O)N[C@H](Cc1ccccc1)C(=O)N1CCC[C@H]1C(=O)N[C@H](Cc1ccccc1)C(=O)N[C@H](Cc1ccccc1)C(=O)N1CCC[C@H]1C(=O)N[C@H](Cc1ccccc1)C(=O)N[C@@H](CCCNC(=N)N)C(=O)N[C@@H](CCCNC(=N)N)C(N)=O)[C@@H](C)CC [BP527] (Hexanoyl-ILP[dF]K[dF]P[dF][dF]P[dF]RR-NH2)							High (key: High: high antibiofilm activity (ratio of biofilm formation from 0.01 to 0.2); Moderate: moderate activity (ratio from 0.29 to 0.47); Low: low activity (ratio from 0.72 to 0.77))	0.18 ± 0.02	0.58 ± 0.12	0.49 ± 0.04 Log N0/N	12.5%	45.7%	41.7%	62.2 ± 4.4%	73.6 ± 1.1%	100.0 ± 2.6%				
CC[C@H](C)[C@H](NC(=O)[C@H](CCCNC(=N)N)NC(=O)[C@@H](NC(=O)[C@H](C)NC(=O)[C@@H](NC(=O)[C@@H](NC(=O)[C@H](CC(C)C)NC(=O)[C@H](CCCNC(=N)N)NC(=O)[C@@H](N)C(C)C)[C@@H](C)CC)C(C)C)C(C)C)C(=O)N[C@@H](Cc1c[nH]c2ccccc12)C(=O)N[C@@H](CCCNC(=N)N)C(=O)N[C@@H](CCCNC(=N)N)C(N)=O [IDR-1018] (H-VRLIVAVRIWRR-NH2; N-terminus and C-terminus assumed)							High (key: High: high antibiofilm activity (ratio of biofilm formation from 0.01 to 0.2); Moderate: moderate activity (ratio from 0.29 to 0.47); Low: low activity (ratio from 0.72 to 0.77))	0.06 ± 0.01	1.72 ± 0.07	1.80 ± 0.01 Log N0/N				35.6 ± 4.4%	43.0 ± 0.2%	45.9 ± 4.9%	Kp, Ec	Pa, Ec, Ab, Kp, Se, Bc		
CC[C@H](C)[C@H](NC(=O)[C@H](CCCNC(=N)N)NC(=O)[C@H](Cc1c[nH]c2ccccc12)NC(=O)[C@H](CCC(N)=O)NC(=O)[C@@H](N)C(C)C)C(=O)N[C@@H](CCCNC(=N)N)C(=O)N[C@H](C(=O)N[C@@H](CCCNC(=N)N)C(=O)N[C@H](C(=O)N[C@H](C(=O)N[C@@H](CCCCN)C(=O)N[C@@H](CCCCN)C(N)=O)[C@@H](C)CC)C(C)C)C(C)C [Peptide 1026] (H-VQWRIRVRVIKK-NH2)	High (key: High: high antibiofilm activity (ratio of biofilm formation from 0.01 to 0.2); Moderate: moderate activity (ratio from 0.29 to 0.47); Low: low activity (ratio from 0.72 to 0.77))		2.10 ± 0.05	1.03 ± 0.07 Log N0/N							0.7%	19.8%	79.5%							
CC[C@H](C)[C@H](NC(=O)[C@H](CCCNC(=N)N)NC(=O)[C@H](Cc1ccccc1)NC(=O)[C@H](CCCNC(=N)N)NC(=O)[C@@H](N)CCCCN)C(=O)N[C@@H](CCCNC(=N)N)C(=O)N[C@H](C(=O)N[C@@H](CCCNC(=N)N)C(=O)N[C@H](C(N)=O)C(C)C)C(C)C [Peptide 1037] (H-KRFRIRVRV-NH2)	High (key: High: high antibiofilm activity (ratio of biofilm formation from 0.01 to 0.2); Moderate: moderate activity (ratio from 0.29 to 0.47); Low: low activity (ratio from 0.72 to 0.77))	0.15 ± 0.00	1.67 ± 0.05	0.84 ± 0.09 Log N0/N	4.2 ± 2.4 µM															
CC[C@H](C)[C@H](NC(=O)[C@H](CCCCN)NC(=O)[C@H](CCCCN)NC(=O)[C@H](CC(C)C)NC(=O)[C@@H](NC(=O)[C@H](CCCNC(=N)N)NC(=O)[C@@H](NC(=O)[C@H](CCCNC(=N)N)NC(=O)[C@@H](NC(=O)[C@H](CCCNC(=N)N)NC(=O)[C@H](Cc1ccccc1)NC(=O)[C@H](CC(C)C)NC(=O)[C@H](CCCNC(=N)N)NC(=O)[C@H](CCCNC(=N)N)NC(=O)[C@H](Cc1ccccc1)NC(=O)[C@@H](N)CCCNC(=N)N)[C@@H](C)CC)C(C)C)C(C)C)C(N)=O [R-FV7-I16] (H-RFRRLFRIRVRVLKKI-NH2; N-terminus assumed)					6.3 ± 3.7 µM	90.6%	High (key: High: high antibiofilm activity (ratio of biofilm formation from 0.01 to 0.2); Moderate: moderate activity (ratio from 0.29 to 0.47); Low: low activity (ratio from 0.72 to 0.77))	0.10 ± 0.01	1.70 ± 0.12	0.39 ± 0.01 Log N0/N				6.3 ± 0.3%	8.0 ± 1.3%	9.7 ± 0.6%	Ec, Pa, Se	Ec, Pa		
CC[C@H](C)[C@H](NC(=O)[C@H](CCCNC(=N)N)NC(=O)[C@H](CCCNC(=N)N)NC(=O)[C@H](CC(C)C)NC(=O)[C@H](Cc1c[nH]c2ccccc12)NC(=O)[C@H](C)NC(=O)[C@H](CCCCN)NC(=O)[C@@H](NC(=O)[C@H](CCCNC(=N)N)NC(=O)[C@H](CCCNC(=N)N)NC(=O)[C@H](CC(C)C)NC(=O)[C@@H](N)Cc1c[nH]c2ccccc12)[C@@H](C)CC)C(=O)N[C@@H](CCCCN)C(=O)N[C@@H](C)C(=O)O [RR4-OH]							High (key: High: high antibiofilm activity (ratio of biofilm formation from 0.01 to 0.2); Moderate: moderate activity (ratio from 0.29 to 0.47); Low: low activity (ratio from 0.72 to 0.77))	0.09 ± 0.01	1.87 ± 0.10	1.94 ± 0.03 Log N0/N				3.2 ± 1.0%	9.8 ± 3.7%	17.8 ± 0.3%	Pa, Ab	Pa, Ab		
BP178																			approximately 3.6 log	
KRIVKLILKWLR-NH2 [KR-12-a5]										1.40 ± 0.07 Log N0/N				79.0 ± 0.6%	96.1 ± 1.8%	100.0 ± 1.7%	Ec, Pa, Se	Pa		affected X. fastidiosa’s growth
